Laboratory results reported in patent US7994209B2, “3-phenoxymethylpyrrolidine compounds” (Theravance, Inc., priority 2009, dated 2011).

Biological target: T1, hNET (Homo sapiens, UniProt P23975)
Assay: hNET neurotransmitter uptake assay (3H-NE), Assay 2
Assay type: cell-based
Set-up: expressed in transfected cells; host or cells: HEK-293
Conditions: norepinephrine reuptake inhibition, 3H-NE uptake, HEK-293 hNET cells (values without asterisk); read-out: NET pIC50 (converted)

T1 sequence (P23975 whole entry): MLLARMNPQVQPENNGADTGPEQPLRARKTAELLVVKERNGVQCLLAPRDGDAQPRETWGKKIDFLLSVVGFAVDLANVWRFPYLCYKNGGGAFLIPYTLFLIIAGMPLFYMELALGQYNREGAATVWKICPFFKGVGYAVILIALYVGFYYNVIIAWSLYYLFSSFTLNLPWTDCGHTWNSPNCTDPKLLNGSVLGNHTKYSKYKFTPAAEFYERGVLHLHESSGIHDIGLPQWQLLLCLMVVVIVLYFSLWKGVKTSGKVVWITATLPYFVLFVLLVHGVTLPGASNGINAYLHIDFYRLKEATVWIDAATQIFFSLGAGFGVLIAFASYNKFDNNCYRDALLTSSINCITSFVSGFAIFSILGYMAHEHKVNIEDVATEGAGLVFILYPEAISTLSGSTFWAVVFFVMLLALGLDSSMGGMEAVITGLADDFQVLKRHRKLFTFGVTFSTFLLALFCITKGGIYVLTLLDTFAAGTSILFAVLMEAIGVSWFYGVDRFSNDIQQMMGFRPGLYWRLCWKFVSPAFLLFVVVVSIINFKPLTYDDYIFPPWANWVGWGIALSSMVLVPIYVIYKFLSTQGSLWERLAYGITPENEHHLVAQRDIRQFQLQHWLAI

| Compound | IC50 [nM] |
| --- | --- |
| CC(C)[C@H](Oc1c(Cl)c(F)cc(F)c1Cl)[C@H]1CCNC1 [Example 6-38, (S)-3-[(S)-1-(2,6-Dichloro-3,5-difluorophenoxy)-2-methylpropyl]pyrrolidine] | ≤ 10 |
| Cc1cccc(O[C@H](C(C)C)[C@H]2CCNC2)c1C [Example 6-43, (S)-3-[(R)-1-(2,3-Dimethylphenoxy)-2-methylpropyl]pyrrolidine] | ≤ 10 |
| COc1cc(Cl)ccc1O[C@@H](C(C)C)[C@H]1CCNC1 [Example 6-47, (S)-3-[(S)-1-(4-Chloro-2-methoxyphenoxy)-2-methylpropyl]pyrrolidine] | ≤ 10 |
| CC(C)C(Oc1ccc(Cl)cc1C(F)(F)F)C1CCNC1 (centres unmarked) [Example 6-50, 3-[1-(4-Chloro-2-trifluoromethylphenoxy)-2-methylpropyl]pyrrolidine] | ≤ 10 |
| CCCC[C@@H](Oc1cc(F)c(F)cc1F)[C@H]1CCNC1 [Example 7, (S)-3-[(R)-1-(2,4,5-Trifluorophenoxy)pentyl]pyrrolidine] | ≤ 10 |
| CCCC[C@@H](Oc1ccccc1Cl)[C@H]1CCNC1 [Example 8-1, (S)-3-[(R)-1-(2-Chlorophenoxy)pentyl]pyrrolidine] | ≤ 10 |
| CCCC[C@@H](Oc1ccccc1C(F)(F)F)[C@H]1CCNC1 [Example 8-2, (S)-3-[(R)-1-(2-Trifluoromethylphenoxy)pentyl]pyrrolidine] | ≤ 100 |

Continued, values first:

| IC50 [nM] | Compound |
| --- | --- |
| ≤ 10 | Cc1c(Cl)cccc1O[C@@H](C(C)C)[C@H]1CCNC1 [Example 6-39, (S)-3-[(S)-1-(3-Chloro-2-methylphenoxy)-2-methylpropyl]pyrrolidine] |
| ≤ 10 | Cc1c(Cl)cccc1O[C@H](C(C)C)[C@H]1CCNC1 [Example 6-40, (S)-3-[(R)-1-(3-Chloro-2-methylphenoxy)-2-methylpropyl]pyrrolidine] |
| ≤ 10 | Cc1cc(Cl)ccc1O[C@@H](C(C)C)[C@H]1CCNC1 [Example 6-45, (S)-3-[(S)-1-(4-Chloro-2-methylphenoxy)-2-methylpropyl]pyrrolidine] |
| ≤ 10 | CC(C)[C@H](Oc1ccc(Cl)c(F)c1)[C@H]1CCNC1 [Example 6-56, (S)-3-[(S)-1-(4-Chloro-3-fluorophenoxy)-2-methylpropyl]pyrrolidine] |
| ≤ 10 | CC(C)[C@H](Oc1ccc(Cl)c(Cl)c1)[C@H]1CCNC1 [Example 6-62, (S)-3-[(S)-1-(3,4-Dichlorophenoxy)-2-methylpropyl]pyrrolidine] |
| ≤ 100 | CC(C)[C@H](Oc1cc(Cl)cc(Cl)c1)[C@H]1CCNC1 [Example 6-66, (S)-3-[(S)-1-(3,5-Dichlorophenoxy)-2-methylpropyl]pyrrolidine] |
| ≤ 10 | CC(C)[C@@H](Oc1cc(Cl)cc(Cl)c1)[C@H]1CCNC1 [Example 6-68, (S)-3-[(R)-1-(3,5-Dichlorophenoxy)-2-methylpropyl]pyrrolidine] |
| ≤ 10 | Cc1cc(O[C@@H](C(C)C)[C@H]2CCNC2)ccc1Cl [Example 6-70, (S)-3-[(S)-1-(4-Chloro-3-methylphenoxy)-2-methylpropyl]pyrrolidine] |
| ≤ 10 | CC(C)C(Oc1ccc(Cl)cc1)C1CCNC1 (centres unmarked) [Example 6-74, 3-[1-(4-Chlorophenoxy)-2-methylpropyl]pyrrolidine] |
| ≤ 100 | CC(C)[C@@H](Oc1ccc(Cl)cc1)[C@@H]1CCNC1 [Example 6-75, (R)-3-[(R)-1-(4-Chlorophenoxy)-2-methylpropyl]pyrrolidine] |

Biological target: T2, hSERT (Homo sapiens, UniProt P31645)
T2 sequence (P31645 whole entry): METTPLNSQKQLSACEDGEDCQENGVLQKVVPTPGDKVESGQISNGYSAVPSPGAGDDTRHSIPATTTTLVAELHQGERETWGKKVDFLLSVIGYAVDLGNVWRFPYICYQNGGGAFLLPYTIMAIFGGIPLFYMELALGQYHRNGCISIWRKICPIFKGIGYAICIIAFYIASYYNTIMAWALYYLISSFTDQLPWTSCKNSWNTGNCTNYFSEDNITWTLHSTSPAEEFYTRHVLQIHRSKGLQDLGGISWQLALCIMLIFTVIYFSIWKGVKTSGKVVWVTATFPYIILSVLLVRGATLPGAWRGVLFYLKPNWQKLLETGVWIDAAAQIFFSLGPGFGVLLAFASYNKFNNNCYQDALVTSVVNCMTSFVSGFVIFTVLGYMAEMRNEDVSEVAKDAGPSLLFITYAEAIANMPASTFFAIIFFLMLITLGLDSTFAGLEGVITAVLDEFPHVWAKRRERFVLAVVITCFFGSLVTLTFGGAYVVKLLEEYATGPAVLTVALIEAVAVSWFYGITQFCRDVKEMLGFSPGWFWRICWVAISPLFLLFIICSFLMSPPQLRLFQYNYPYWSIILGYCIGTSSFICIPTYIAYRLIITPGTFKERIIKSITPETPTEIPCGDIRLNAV
Assay: hSERT neurotransmitter uptake assay (3H-5-HT), Assay 2
Assay type: cell-based
Set-up: expressed in transfected cells; host or cells: HEK-293
Conditions: serotonin reuptake inhibition, 3H-5-HT uptake, HEK-293 hSERT cells (values without asterisk); read-out: SERT pIC50 (converted)

| Compound | IC50 [nM] |
| --- | --- |
| CC(C)[C@H](Oc1c(Cl)c(F)cc(F)c1Cl)[C@H]1CCNC1 [Example 6-38, (S)-3-[(S)-1-(2,6-Dichloro-3,5-difluorophenoxy)-2-methylpropyl]pyrrolidine] | ≤ 100 |
| Cc1cccc(O[C@H](C(C)C)[C@H]2CCNC2)c1C [Example 6-43, (S)-3-[(R)-1-(2,3-Dimethylphenoxy)-2-methylpropyl]pyrrolidine] | ≤ 10 |
| COc1cc(Cl)ccc1O[C@@H](C(C)C)[C@H]1CCNC1 [Example 6-47, (S)-3-[(S)-1-(4-Chloro-2-methoxyphenoxy)-2-methylpropyl]pyrrolidine] | ≤ 10 |
| CC(C)C(Oc1ccc(Cl)cc1C(F)(F)F)C1CCNC1 (centres unmarked) [Example 6-50, 3-[1-(4-Chloro-2-trifluoromethylphenoxy)-2-methylpropyl]pyrrolidine] | ≤ 100 |
| CCCC[C@@H](Oc1cc(F)c(F)cc1F)[C@H]1CCNC1 [Example 7, (S)-3-[(R)-1-(2,4,5-Trifluorophenoxy)pentyl]pyrrolidine] | ≤ 100 |
| CCCC[C@@H](Oc1ccccc1Cl)[C@H]1CCNC1 [Example 8-1, (S)-3-[(R)-1-(2-Chlorophenoxy)pentyl]pyrrolidine] | ≤ 100 |
| CCCC[C@@H](Oc1ccccc1C(F)(F)F)[C@H]1CCNC1 [Example 8-2, (S)-3-[(R)-1-(2-Trifluoromethylphenoxy)pentyl]pyrrolidine] | ≤ 100 |

The next lines start with the values.

| IC50 [nM] | Compound |
| --- | --- |
| ≤ 10 | Cc1c(Cl)cccc1O[C@@H](C(C)C)[C@H]1CCNC1 [Example 6-39, (S)-3-[(S)-1-(3-Chloro-2-methylphenoxy)-2-methylpropyl]pyrrolidine] |
| ≤ 10 | Cc1c(Cl)cccc1O[C@H](C(C)C)[C@H]1CCNC1 [Example 6-40, (S)-3-[(R)-1-(3-Chloro-2-methylphenoxy)-2-methylpropyl]pyrrolidine] |
| ≤ 10 | Cc1cc(Cl)ccc1O[C@@H](C(C)C)[C@H]1CCNC1 [Example 6-45, (S)-3-[(S)-1-(4-Chloro-2-methylphenoxy)-2-methylpropyl]pyrrolidine] |
| ≤ 10 | CC(C)[C@H](Oc1ccc(Cl)c(F)c1)[C@H]1CCNC1 [Example 6-56, (S)-3-[(S)-1-(4-Chloro-3-fluorophenoxy)-2-methylpropyl]pyrrolidine] |
| ≤ 10 | CC(C)[C@H](Oc1ccc(Cl)c(Cl)c1)[C@H]1CCNC1 [Example 6-62, (S)-3-[(S)-1-(3,4-Dichlorophenoxy)-2-methylpropyl]pyrrolidine] |
| ≤ 10 | CC(C)[C@H](Oc1cc(Cl)cc(Cl)c1)[C@H]1CCNC1 [Example 6-66, (S)-3-[(S)-1-(3,5-Dichlorophenoxy)-2-methylpropyl]pyrrolidine] |
| ≤ 10 | CC(C)[C@@H](Oc1cc(Cl)cc(Cl)c1)[C@H]1CCNC1 [Example 6-68, (S)-3-[(R)-1-(3,5-Dichlorophenoxy)-2-methylpropyl]pyrrolidine] |
| ≤ 10 | Cc1cc(O[C@@H](C(C)C)[C@H]2CCNC2)ccc1Cl [Example 6-70, (S)-3-[(S)-1-(4-Chloro-3-methylphenoxy)-2-methylpropyl]pyrrolidine] |
| ≤ 10 | CC(C)C(Oc1ccc(Cl)cc1)C1CCNC1 (centres unmarked) [Example 6-74, 3-[1-(4-Chlorophenoxy)-2-methylpropyl]pyrrolidine] |
| ≤ 10 | CC(C)[C@@H](Oc1ccc(Cl)cc1)[C@@H]1CCNC1 [Example 6-75, (R)-3-[(R)-1-(4-Chlorophenoxy)-2-methylpropyl]pyrrolidine] |

Biological target: T2, hSERT
Assay: hSERT membrane radioligand binding assay (3H-citalopram), Assay 1
Conditions: SERT pKi, hSERT HEK-293 membranes, 1.0 nM 3H-citalopram; values given as lower bounds
Description: Membrane radioligand binding assays were used to measure inhibition of labeled ligand (^3H-citalopram or ^3H-nisoxetine or ^3H-WIN35428) binding to membranes prepared from cells expressing the respective human recombinant transporter (hSERT or hNET or hDAT) in order to determine the pKi values of test compounds at the transporters.
Recombinant human embryonic kidney (HEK-293) derived cell lines stably transfected with hSERT or hNET, respectively, were grown in DMEM medium supplemented with 10% dialyzed FBS (for hSERT) or FBS (for hNET), 100 μg/mL penicillin, 100 μg/mL streptomycin, 2 mM L-glutamine and 250 μg/mL of the aminoglycoside antibiotic G418, in a 5% CO2 humidified incubator at 37° C. When cultures reached 80% confluence, the cells were washed thoroughly in PBS (without Ca^2+ and Mg^2+) and lifted with 5 mM EDTA in PBS. Cells were pelleted by centrifugation, resuspended in lysis buffer (10 mM Tris-HCl, pH7.5 containing 1 mM EDTA), homogenized, pelleted by centrifugation, then resuspended in 50 mM Tris-HCl, pH 7.5 and 10% sucrose at 4° C. Protein concentration of the membrane suspension was determined using a Bio-Rad Bradford Protein Assay kit. Membranes were snap frozen and stored at −80° C.
Binding assays were performed in a 96-well assay plate in a total volume of 200 μl assay buffer (50 mM Tris-HCl, 120 mM NaCl, 5 mM KCl, pH 7.4) with 0.5, 1, and 3 μg membrane protein, for SERT, NET and DAT, respectively.
Stock solutions (10 mM in DMSO) of test compound were prepared and serial dilutions made using Dilution Buffer (50 mM Tris-HCl, 120 mM NaCl, 5 mM KCl, pH 7.4, 0.1% BSA, 400 μM ascorbic acid).
Following a 60 minute incubation at 22° C. (or a period sufficient to reach equilibrium), the membranes were harvested by rapid filtration over a 96-well UniFilter GF/B plate, pretreated with 0.3% polyethyleneimine, and washed 6 times with 300 μl wash buffer (50 mM Tris-HCl, 0.9% NaCl, pH 7.5 at 4° C.). Plates were dried overnight at room temperature, approximately 45 μl of MicroScint™-20 (Perkin Elmer) added and bound radioactivity quantitated via liquid scintillation spectroscopy. Inhibition curves and saturation isotherms were analyzed using GraphPad Prism Software package (GraphPad Software, Inc., San Diego, Calif.). IC50 values were generated from concentration response curves using the Sigmoidal Dose Response (variable slope) algorithm in Prism GraphPad.

| Compound | Ki [nM] |
| --- | --- |
| CC(C)[C@H](Oc1c(Cl)c(F)cc(F)c1Cl)[C@H]1CCNC1 [Example 6-38, (S)-3-[(S)-1-(2,6-Dichloro-3,5-difluorophenoxy)-2-methylpropyl]pyrrolidine] | ≤ 10 |
| Cc1cccc(O[C@H](C(C)C)[C@H]2CCNC2)c1C [Example 6-43, (S)-3-[(R)-1-(2,3-Dimethylphenoxy)-2-methylpropyl]pyrrolidine] | ≤ 10 |
| COc1cc(Cl)ccc1O[C@@H](C(C)C)[C@H]1CCNC1 [Example 6-47, (S)-3-[(S)-1-(4-Chloro-2-methoxyphenoxy)-2-methylpropyl]pyrrolidine] | ≤ 10 |
| CC(C)C(Oc1ccc(Cl)cc1C(F)(F)F)C1CCNC1 (centres unmarked) [Example 6-50, 3-[1-(4-Chloro-2-trifluoromethylphenoxy)-2-methylpropyl]pyrrolidine] | ≤ 10 |
| CCCC[C@@H](Oc1cc(F)c(F)cc1F)[C@H]1CCNC1 [Example 7, (S)-3-[(R)-1-(2,4,5-Trifluorophenoxy)pentyl]pyrrolidine] | ≤ 10 |
| CCCC[C@@H](Oc1ccccc1Cl)[C@H]1CCNC1 [Example 8-1, (S)-3-[(R)-1-(2-Chlorophenoxy)pentyl]pyrrolidine] | ≤ 10 |
| CCCC[C@@H](Oc1ccccc1C(F)(F)F)[C@H]1CCNC1 [Example 8-2, (S)-3-[(R)-1-(2-Trifluoromethylphenoxy)pentyl]pyrrolidine] | ≤ 10 |

More lines, now with the values ahead:

| Ki [nM] | Compound |
| --- | --- |
| ≤ 10 | Cc1c(Cl)cccc1O[C@@H](C(C)C)[C@H]1CCNC1 [Example 6-39, (S)-3-[(S)-1-(3-Chloro-2-methylphenoxy)-2-methylpropyl]pyrrolidine] |
| ≤ 10 | Cc1c(Cl)cccc1O[C@H](C(C)C)[C@H]1CCNC1 [Example 6-40, (S)-3-[(R)-1-(3-Chloro-2-methylphenoxy)-2-methylpropyl]pyrrolidine] |
| ≤ 10 | Cc1cc(Cl)ccc1O[C@@H](C(C)C)[C@H]1CCNC1 [Example 6-45, (S)-3-[(S)-1-(4-Chloro-2-methylphenoxy)-2-methylpropyl]pyrrolidine] |
| ≤ 10 | CC(C)[C@H](Oc1ccc(Cl)c(F)c1)[C@H]1CCNC1 [Example 6-56, (S)-3-[(S)-1-(4-Chloro-3-fluorophenoxy)-2-methylpropyl]pyrrolidine] |
| ≤ 10 | CC(C)[C@H](Oc1ccc(Cl)c(Cl)c1)[C@H]1CCNC1 [Example 6-62, (S)-3-[(S)-1-(3,4-Dichlorophenoxy)-2-methylpropyl]pyrrolidine] |
| ≤ 10 | CC(C)[C@H](Oc1cc(Cl)cc(Cl)c1)[C@H]1CCNC1 [Example 6-66, (S)-3-[(S)-1-(3,5-Dichlorophenoxy)-2-methylpropyl]pyrrolidine] |
| ≤ 10 | CC(C)[C@@H](Oc1cc(Cl)cc(Cl)c1)[C@H]1CCNC1 [Example 6-68, (S)-3-[(R)-1-(3,5-Dichlorophenoxy)-2-methylpropyl]pyrrolidine] |
| ≤ 10 | Cc1cc(O[C@@H](C(C)C)[C@H]2CCNC2)ccc1Cl [Example 6-70, (S)-3-[(S)-1-(4-Chloro-3-methylphenoxy)-2-methylpropyl]pyrrolidine] |
| ≤ 10 | CC(C)C(Oc1ccc(Cl)cc1)C1CCNC1 (centres unmarked) [Example 6-74, 3-[1-(4-Chlorophenoxy)-2-methylpropyl]pyrrolidine] |
| ≤ 10 | CC(C)[C@@H](Oc1ccc(Cl)cc1)[C@@H]1CCNC1 [Example 6-75, (R)-3-[(R)-1-(4-Chlorophenoxy)-2-methylpropyl]pyrrolidine] |

Biological target: T1, hNET
Assay: hNET membrane radioligand binding assay (3H-nisoxetine), Assay 1
Conditions: not given

| Compound | Ki [nM] |
| --- | --- |
| CC(C)[C@H](Oc1c(Cl)c(F)cc(F)c1Cl)[C@H]1CCNC1 [Example 6-38, (S)-3-[(S)-1-(2,6-Dichloro-3,5-difluorophenoxy)-2-methylpropyl]pyrrolidine] | ≤ 10 |
| Cc1cccc(O[C@H](C(C)C)[C@H]2CCNC2)c1C [Example 6-43, (S)-3-[(R)-1-(2,3-Dimethylphenoxy)-2-methylpropyl]pyrrolidine] | ≤ 10 |
| COc1cc(Cl)ccc1O[C@@H](C(C)C)[C@H]1CCNC1 [Example 6-47, (S)-3-[(S)-1-(4-Chloro-2-methoxyphenoxy)-2-methylpropyl]pyrrolidine] | ≤ 10 |
| CC(C)C(Oc1ccc(Cl)cc1C(F)(F)F)C1CCNC1 (centres unmarked) [Example 6-50, 3-[1-(4-Chloro-2-trifluoromethylphenoxy)-2-methylpropyl]pyrrolidine] | ≤ 10 |
| CCCC[C@@H](Oc1cc(F)c(F)cc1F)[C@H]1CCNC1 [Example 7, (S)-3-[(R)-1-(2,4,5-Trifluorophenoxy)pentyl]pyrrolidine] | ≤ 10 |
| CCCC[C@@H](Oc1ccccc1Cl)[C@H]1CCNC1 [Example 8-1, (S)-3-[(R)-1-(2-Chlorophenoxy)pentyl]pyrrolidine] | ≤ 10 |
| CCCC[C@@H](Oc1ccccc1C(F)(F)F)[C@H]1CCNC1 [Example 8-2, (S)-3-[(R)-1-(2-Trifluoromethylphenoxy)pentyl]pyrrolidine] | ≤ 10 |

The remaining lines, values ahead:

| Ki [nM] | Compound |
| --- | --- |
| ≤ 10 | Cc1c(Cl)cccc1O[C@@H](C(C)C)[C@H]1CCNC1 [Example 6-39, (S)-3-[(S)-1-(3-Chloro-2-methylphenoxy)-2-methylpropyl]pyrrolidine] |
| ≤ 10 | Cc1c(Cl)cccc1O[C@H](C(C)C)[C@H]1CCNC1 [Example 6-40, (S)-3-[(R)-1-(3-Chloro-2-methylphenoxy)-2-methylpropyl]pyrrolidine] |
| ≤ 10 | Cc1cc(Cl)ccc1O[C@@H](C(C)C)[C@H]1CCNC1 [Example 6-45, (S)-3-[(S)-1-(4-Chloro-2-methylphenoxy)-2-methylpropyl]pyrrolidine] |
| ≤ 10 | CC(C)[C@H](Oc1ccc(Cl)c(F)c1)[C@H]1CCNC1 [Example 6-56, (S)-3-[(S)-1-(4-Chloro-3-fluorophenoxy)-2-methylpropyl]pyrrolidine] |
| ≤ 10 | CC(C)[C@H](Oc1ccc(Cl)c(Cl)c1)[C@H]1CCNC1 [Example 6-62, (S)-3-[(S)-1-(3,4-Dichlorophenoxy)-2-methylpropyl]pyrrolidine] |
| ≤ 100 | CC(C)[C@H](Oc1cc(Cl)cc(Cl)c1)[C@H]1CCNC1 [Example 6-66, (S)-3-[(S)-1-(3,5-Dichlorophenoxy)-2-methylpropyl]pyrrolidine] |
| ≤ 10 | CC(C)[C@@H](Oc1cc(Cl)cc(Cl)c1)[C@H]1CCNC1 [Example 6-68, (S)-3-[(R)-1-(3,5-Dichlorophenoxy)-2-methylpropyl]pyrrolidine] |
| ≤ 10 | Cc1cc(O[C@@H](C(C)C)[C@H]2CCNC2)ccc1Cl [Example 6-70, (S)-3-[(S)-1-(4-Chloro-3-methylphenoxy)-2-methylpropyl]pyrrolidine] |
| ≤ 10 | CC(C)C(Oc1ccc(Cl)cc1)C1CCNC1 (centres unmarked) [Example 6-74, 3-[1-(4-Chlorophenoxy)-2-methylpropyl]pyrrolidine] |
| ≤ 100 | CC(C)[C@@H](Oc1ccc(Cl)cc1)[C@@H]1CCNC1 [Example 6-75, (R)-3-[(R)-1-(4-Chlorophenoxy)-2-methylpropyl]pyrrolidine] |
